Holding throughout (type): cell-based
One assay relates to BRK-BaF3 cells. As to the kind of experiment: Cell antiproliferative activity assay (CCK-8), BRK-BaF3. The conditions noted are these: 72 h, CCK-8, 3 days incubation. In a few lines: (§1)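 Growth inhibition over 3 days, with compound serially diluted 3-fold from a 10 µM top concentration. Cells seeded at 100,000 cells/mL; WT-BaF3 medium carried 10% WEHI supernatant as the IL-3 source. Viability read by CCK-8 OD450 after 2-4 h; IC50 from blank-subtracted curve fit.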

In a further assay the test system is WT-BaF3 cells. As to the kind of experiment: Cell antiproliferative activity assay (CCK-8), WT-BaF3 (broad-spectrum cytotoxicity). The conditions noted are these: 72 h; WT-BaF3 cells (IL-3 supplemented), CCK-8, 3 days incubation. In a few lines:
as §1

In a further assay the test system is T47D cells. As to the kind of experiment: Cell antiproliferative activity assay (CCK-8), T47D. The note with it: Homo sapiens, 72 h, breast cancer cell line T47D, incubation for 3 days. As for the experimental part: BRK-BaF3, WT-BaF3, WEHI cell line, and breast cancer cell line T47D were cultured using RPMI 1640 Basal medium or DMEM (Dulbecco's Modified Eagle Medium) (Shanghai Peiyuan Biotechnology, L220KJ), supplemented with 10% FBS (Gibco, REF 10099-141C) and 1% P/S (Shanghai Peiyuan Biotechnology, S110JV), in an incubator (Thermo 3020) at 37°C with 5% CO2. Cell viability was above 95%. Cells were passaged at a 3:1 ratio every 3-4 days. For WT-BaF3 cells, WEHI cells were first cultured, and their culture supernatant was filtered through a 0.22 µm filter. This supernatant was added at 10% to the regular culture medium to supplement IL-3 required for WT-BaF3 cell proliferation, which served as the culture medium for WT-BaF3. For testing, cells were first collected and counted, then prepared into a cell suspension at 100,000 cells/mL and plated at 100 µL per well. Drug concentrations started from 10 µM and were serially diluted 3:1. After incubation for 3 days, 20 µL of CCK-8 detection reagent (Targetmol C005) was added to each well. After incubation for 2-4 hours, OD450 was measured using a microplate reader (Varioskan LUX, Thermo Scientific). After subtracting the blank background, the curve was fitted and the IC50 was calculated using XLfit software.
In addition, the following table exemplarily lists the IC50 values of some compounds of the present invention against T47D cells.

By IC50 is commonly meant the midpoint of a concentration-inhibition curve. Consider `Cc1nn(CCCO)cc1Nc1ncc2cc(-c3cccnc3)cc(C(C)C)c2n1` [I-53], for which the figures for the concentration for half-maximal inhibition (IC50) in the assay on BRK-BaF3 cells, with WT-BaF3 cells and in the assay with T47D cells were no more than 20 nM, 500 to 2500 nM and no more than 500 nM, respectively.
For `Cc1nn(CCO)cc1Nc1ncc2cc(-c3c[nH]nc3C)cc(C(C)C)c2n1` [I-187] the same measures were no more than 20 nM, 500 to 2500 nM and no more than 500 nM.
For `CC(C)c1cc(-c2cccnc2)cc2cnc(Nc3cn(CCO)nc3C(F)F)nc12` [I-54] the same measures were no more than 20 nM, 500 to 2500 nM and 500 to 1000 nM.
For `Cc1ccc(C#N)cc1-c1cc(C(C)C)c2nc(Nc3cn(C)nc3C)ncc2c1` [III-130] the same measures were no more than 20 nM, 500 to 2500 nM and no more than 500 nM.
Regarding `CC(C)c1cc(-c2cccnc2)cc2cnc(Nc3cn(CCO)nc3Cl)nc12` [I-55], the concentration for half-maximal inhibition (IC50) was no more than 20 nM in the assay on BRK-BaF3 cells, 500 to 2500 nM in the assay with WT-BaF3 cells and no more than 500 nM in the assay with T47D cells.
For `Cc1nccnc1-c1cc(C(C)C)c2nc(Nc3cn(C)nc3C(F)F)ncc2c1` [III-102], the IC50 in the assay on BRK-BaF3 cells was no more than 20 nM; in the assay on WT-BaF3 cells, greater than 2500 nM; with T47D cells it was 500 to 1000 nM.
For `Cc1nn(CCO)cc1Nc1ncc2cc(-c3cccnc3C)cc(C(C)C)c2n1` [I-22] the same measures were no more than 20 nM, 500 to 2500 nM and 500 to 1000 nM.
For `Cc1nn(CCO)cc1Nc1ncc2cc(-c3c(F)ccnc3N)cc(C(C)C)c2n1` [I-48] the same measures were no more than 20 nM, greater than 2500 nM and 500 to 1000 nM.
For `Cc1c[nH]c(=O)cc1-c1cc(C(C)C)c2nc(Nc3cn(C)nc3C(F)F)ncc2c1` [III-4] the same measures were no more than 20 nM, 500 to 2500 nM and 500 to 1000 nM.
For `Cc1nccnc1-c1cc(C(C)C)c2nc(Nc3cn(C)nc3Cl)ncc2c1` [III-101], the results for the concentration for half-maximal inhibition (IC50) in the assay with BRK-BaF3 cells, with WT-BaF3 cells and with T47D cells were no more than 20 nM, 500 to 2500 nM and 500 to 1000 nM, respectively.
In the case of `Cc1ccc(C#N)cc1-c1cc(C(C)C)c2nc(Nc3cn(CCO)nc3C)ncc2c1` [I-162], the IC50 is no more than 20 nM in the assay with BRK-BaF3 cells, 500 to 2500 nM in the assay on WT-BaF3 cells and no more than 500 nM in the assay with T47D cells.
For `COc1nc(Nc2ncc3cc(-c4nccnc4C)cc(C4CC4)c3n2)ccc1P(C)(C)=O` [II-71] the same measures were no more than 20 nM, 500 to 2500 nM and no more than 500 nM.
For `Cc1ccncc1-c1cc(C(C)C)c2nc(Nc3cn(C)nc3C)ncc2c1` [III-120] the same measures were no more than 20 nM, 100 to 500 nM and no more than 500 nM.
For `Cc1c[nH]c(=O)cc1-c1cc(C(C)C)c2nc(Nc3cnn(C4CCN(C)CC4)c3C)ncc2c1` [III-14] the same measures were no more than 20 nM, 500 to 2500 nM and 500 to 1000 nM.
`Cc1ccc(-c2cc(C(C)C)c3nc(Nc4cn(CCO)nc4C)ncc3c2)c(F)n1` [I-39]: the figures for the 50% inhibitory concentration (IC50) in the assay with BRK-BaF3 cells, in the assay with WT-BaF3 cells and with T47D cells were 20 to 100 nM, 100 to 500 nM and no more than 500 nM, respectively.
On to `COc1cc(Nc2ncc3cc(-c4c(C)ncnc4C)cc(C4CC4)c3n2)ccc1P(C)(C)=O` [II-62], for which the IC50 in the assay on BRK-BaF3 cells was no more than 20 nM; with WT-BaF3 cells it was 100 to 500 nM; with T47D cells it was 500 to 1000 nM.
For `CCOc1cc(Nc2ncc3cc(-c4nccnc4C)cc(C4CC4)c3n2)ccc1P(C)(C)=O` [II-72] the same measures were no more than 20 nM, 500 to 2500 nM and no more than 500 nM.
As to `Cc1ccncc1-c1cc(C(C)C)c2nc(Nc3cn(CC(C)(C)O)nc3C)ncc2c1` [I-56], the figures for the IC50 in the assay on BRK-BaF3 cells, in the assay with WT-BaF3 cells and with T47D cells were no more than 20 nM, 500 to 2500 nM and no more than 500 nM, respectively.
For `Cc1nn(CCO)cc1Nc1ncc2cc(-c3cccnc3N)cc(C(C)C)c2n1` [I-27] the same measures were no more than 20 nM, 500 to 2500 nM and 500 to 1000 nM.
Take `Cc1nccnc1-c1cc(C(C)C)c2nc(Nc3ccc(P(C)(C)=O)c(C)c3F)ncc2c1` [II-18]: the IC50 in the assay with BRK-BaF3 cells is no more than 20 nM; with WT-BaF3 cells, greater than 2500 nM; in the assay with T47D cells, 500 to 1000 nM.
For `Cc1ccnc(F)c1-c1cc(C(C)C)c2nc(Nc3cn(CCO)nc3C)ncc2c1` [I-46] the same measures were no more than 20 nM, 500 to 2500 nM and no more than 500 nM.
For `Cc1ccnnc1-c1cc(C(C)C)c2nc(Nc3cn(C)nc3C)ncc2c1` [III-90] the same measures were no more than 20 nM, 100 to 500 nM and no more than 500 nM.
Consider `[2H]C([2H])([2H])n1cc(Nc2ncc3cc(-c4cc(=O)[nH]cc4C)cc(C(C)C)c3n2)c(C)n1` [III-9], for which the values for the IC50 in the assay with BRK-BaF3 cells, in the assay on WT-BaF3 cells and in the assay on T47D cells were no more than 20 nM, 500 to 2500 nM and no more than 500 nM, respectively.
